Publication PMC12254266, “Multicolored sequential resonance energy transfer for detection of simultaneous ligand binding at G protein-coupled receptors” (Nature Communications, 2025)
“And” between values parts separate entries of the source, which are not always exact repeats. Equal entries are not always repeated. Where two headings read alike, the source gives them in different places.

What was measured:
[1] = target: T1, FFA1 (Homo sapiens, UniProt O14842); test: NanoBiT arrestin-3 recruitment in HEK293T cells; format: cell-based; set-up: expressed in transfected cells; host or cells: HEK293T, transient; conditions: ± SEM
Method: For arrestin-3 recruitment assays, HEK293T cells were transfected with FFA1 receptor and a bystander NanoBiT split luciferase arrestin-3 recruitment biosensor. Cells were transfected and plated simultaneously in a reverse transfection protocol into a poly-D-lysine coated white 96-well plate. Per well, 60,000 cells were transfected with 5 ng plasmid expressing LgBiT with a N-terminal Lyn11 plasma membrane localisation tag, 5 ng plasmid expressing bovine arrestin-3 fused at its N-terminal to SmBiT tag and 30 ng plasmid expressing the human FFA1 receptor. Total DNA was made up to 100 ng total/well with empty pcDNA3 vector and transfected to cell suspension with 0.6 µg/well PEI. Following transfection cells were cultured for 24 h before use. On the day of assay, cells were washed twice with HBSS and incubated in HBSS for 30 min at 37 °C. NanoGlo substrate was added at a final 1:800 dilution and incubated in the dark for 10 min at 37 °C. […] Raw luminescence values were divided by baseline signal (average of first 5 data points prior to compound addition) and vehicle measurements subtracted from agonist treatment. Area under curves were calculated and concentration response curves plotted.

[2] = target: FFA1-Nluc (Homo sapiens, UniProt O14842); test: NanoBRET binding (saturation, kinetics) at C terminal Nluc tagged FFA1; set-up: expressed in transfected cells
Procedure, shortened: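 Doxycycline-induced (100 ng/mL, 24 h) FFA1-Nluc Flp-In T-REx 293 cells in HBSS with NanoGlo substrate (1:800). Endpoint binding used 5 min with fluorescent ligand at 37 °C. Kinetics were read at 25 °C: association ~10 min, then dissociation with excess competitor for 30 min. The read-out was the acceptor/donor BRET ratio.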

[3] = Aqueous solubility; format: physicochemical; conditions: in words, relative to previous analogues
[4] = target: T1, FFA1; test: Ca2+ mobilisation (Fura2) in Flp-In T-REx 293 cells expressing Nluc-FFA1, FFA1-Nluc or untagged FFA1; format: cell-based; set-up: expressed in transfected cells
Procedure, shortened: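 520 nm emission read at 340 and 380 nm excitation over 90 s spanning compound addition. Response taken as peak 340/380 ratio after subtracting pre-addition ratios.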

Sequence of FFA1-Nluc (O14842 whole entry): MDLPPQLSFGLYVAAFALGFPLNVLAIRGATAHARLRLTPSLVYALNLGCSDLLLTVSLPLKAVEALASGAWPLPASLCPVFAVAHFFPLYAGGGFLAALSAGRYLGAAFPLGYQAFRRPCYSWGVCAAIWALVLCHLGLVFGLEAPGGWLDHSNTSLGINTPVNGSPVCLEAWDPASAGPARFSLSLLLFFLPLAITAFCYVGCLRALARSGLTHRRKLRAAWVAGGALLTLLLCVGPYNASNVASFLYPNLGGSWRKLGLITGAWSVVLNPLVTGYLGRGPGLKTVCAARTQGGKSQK
T1 sequence (O14842 whole entry, the tested form may be a part): as the sequence (O14842 whole entry) above

EMax (% TUG-905) arrestin-3 recruitment ([1]; percentage of the response to 10 μM TUG-905): 60 ± 6%
pEC50 arrestin-3 recruitment ([1]; N=3): 8.5 ± 0.3
Kd ([2]; FFA1-Nluc, 95% confidence interval in parentheses, read-out: Kd, saturation BRET binding): 380 nM
Specific BRET (540/450) Ratio ([2]; FFA1-Nluc, [TUG-2597] 550 nM): 0.0328 and 0.0282
kOff Nano-BRET Allosterism, FFA1-Nluc ([2]; TUG-2597 (1 μM) in the presence of TUG-905 (30μM), 95% CI in parentheses): 0.24 (0.23-0.25) min-1
kOff Nano-BRET Single Concentration ([2]; based on the value calculated in Supplementary Table 4): 0.00633 s⁻¹
kOn Nano-BRET Single Concentration ([2]; no pre-treatment, NBD/Nluc (Sup. Fig. 10A)): 23333.33 M⁻¹ s⁻¹
Kd ([2]; no pre-treatment, read-out: Kd Nano-BRET Single Concentration (kinetic)): 270 nM
aqueous solubility [3]: improved aqueous solubility
pEC50 ([4]; Ca2+ data, mean±SEM, NR = No response): 7.27±0.15
Ca2+ Response as a % of T360 Response ([4]; FFA1-Nluc cells, log[ligand] -6.5, technical replicates): 93.856%
activity in Ca2+ assays ([4]; in words): full agonist activity
EMax ([4]; percentage of response to 10 μM T360, NR = No response): 101±4%
Structure (SMILES): COc1ccc(C(=O)N(CC(C)(C)CNc2ccc([N+](=O)[O-])c3nonc23)c2cccc(C)n2)c(N2CCC(COc3cccc(C(CC(=O)O)C4CC4)c3)CC2)c1.O=C(O)C(F)(F)F (stereo not shown) [TUG-2597]
Specific BRET ([2]; FFA1-Nluc (Fig 1E), percentage of the maximal signal, [TUG-2597] 550 nM): 49.872% and 58.619% and 50.406% and 58.181% and 46.189%
Ca2+ Response as a % of T360 Response ([4]; FFA1-Nluc cells, log[ligand] -6, technical replicates): 99.449% and 102.959% and 94.044% and 86.097% and 89.862% and 94.557% and 93.903% and 112.372% and 96.085%
Ca2+ Response as a % of T360 Response ([4]; Nluc-FFA1 cells, log[ligand] -6, technical replicates): 98.502% and 90.832% and 83.286% and 100.456% and 100.532% and 98.348% and 86.132% and 101.429% and 99.802%
Ca2+ Response as a % of T360 Response ([4]; Nluc-FFA1 cells, log[ligand] -6.5, technical replicates): 75.000% and 74.673% and 79.991% and 79.440% and 88.972% and 77.424%
Ca2+ Response as a % of T360 Response ([4]; log[Ligand] -5, single technical replicates): 94.1089% and 100.3658% and 94.0694% and 95.2773% and 93.4218% and 94.0281% and 113.6201% and 103.7535% and 91.4802%
Ca2+ Response as a % of T360 Response ([4]; log[Ligand] -5.5, single technical replicates): 88.4228% and 88.1164% and 92.8756% and 94.9449% and 95.8176% and 102.8518% and 111.3779% and 100.7045% and 94.6978%
Ca2+ Response as a % of T360 Response ([4]; log[Ligand] -6, single technical replicates): 102.9594% and 94.0443% and 86.0972% and 89.8623% and 94.5572% and 93.9027% and 112.3722% and 96.0847% and 99.4485%
Ca2+ Response as a % of T360 Response ([4]; log[Ligand] -6.5, single technical replicates): 98.0209% and 82.7239% and 91.3275% and 93.3935% and 84.3453% and 87.8268% and 93.2804% and 88.9497% and 93.8558%
Ca2+ Response as a % of T360 Response ([4]; log[Ligand] -7, single technical replicates): 78.0026% and 75.4199% and 62.2477% and 75.7232% and 79.9853% and 65.5987% and 54.9740% and 35.8972% and 43.3457%
Ca2+ Response as a % of T360 Response ([4]; log[Ligand] -8, single technical replicates): 14.2762% and 15.7577% and 11.8329% and 8.5966% and 24.0260% and 6.3496% and -0.7745% and -0.6973% and 0.6419%
Ca2+ Response as a % of T360 Response ([4]; log[Ligand] -9, single technical replicates): 2.8056% and 3.1175% and 1.8245% and 0.4833% and 3.2822% and 3.2529% and 0.4143% and 0.1324% and 3.0301%
Ca2+ Response as a % of T360 Response ([4]; untagged FFA1 cells, log[ligand] -6, technical replicates): 93.834% and 82.677% and 85.015% and 110.264% and 98.194% and 98.400% and 82.235% and 72.424% and 63.906% and 83.124% and 92.268% and 73.931%
